Measured values reported in patent US5846525A, “Protected biopolymers for oral administration and methods of using same” (Trega Biosciences, Inc., priority 1995, dated 1998).
“And” between values parts separate entries of the source, which are not always exact repeats. Equal entries are not always repeated.

Columns and labels:
[1] = Binding of CRA-1 to Amberlite IRP-69 cation exchange resin (HPLC of filtrate); type: physicochemical
Description: CRA-1, which has the amino acid sequence Ac-Nle-Gln-His-(D)Phe-Arg-(D)Trp-Gly-NH2, was prepared as described in U.S. Pat. No. 5,420,109, where it is referred to as "EX-2." A 1 mg/ml solution of peptide CRA-1 was prepared by dissolving 19.7 mg CRA-1 in 19.7 ml PBS. Ten mg Amberlite® IRP-69 ("IRP-69") (Rohm and Haas) was added to 5 ml CRA-1 solution (5 mg CRA-1) to achieve a CRA-1:IRP-69 ratio of 1:2. The mixture was adjusted to pH 6.0 and stirred for 2 hr. The suspension then was filtered and the filtrate was analyzed by HPLC (see Example II.A) to determine the total amount of CRA-1 bound to IRP-69. Binding also was performed using CRA-1:IRP-69 ratios of 1:20 and 1:200.

[2] = Binding of CRA-1 to Amberlite IRP-64 cation exchange resin (HPLC of filtrate); type: physicochemical
Description: A 1 mg/ml CRA-1 solution was prepared by dissolving 42.5 mg CRA-1 in 42.5 ml PBS. Fifty mg Amberlite® IRP-64 ("IRP-64") (Rohm and Haas) was added to 5 ml CRA-1 solution (5 mg CRA-1) to achieve a peptide:resin ratio of 1:10. The mixture was adjusted to pH 6.0 and stirred for 1 hr. The suspension was filtered and the filtrate was analyzed by HPLC (see Example II.A) to determine the total amount of CRA-1 bound to IRP-64. Binding also was performed using CRA-1: IRP-64 ratios of 1:1, 1:2 and 1:20.

trypsin [3] = biological target: T1, trypsin (Bos taurus, UniProt P00760); experiment: Susceptibility of free peptide to enzymatic degradation by trypsin; type: in vitro ADME; conditions: 37° C.
T1 construct: gene PRSS1
T1 sequence (P00760 24-246): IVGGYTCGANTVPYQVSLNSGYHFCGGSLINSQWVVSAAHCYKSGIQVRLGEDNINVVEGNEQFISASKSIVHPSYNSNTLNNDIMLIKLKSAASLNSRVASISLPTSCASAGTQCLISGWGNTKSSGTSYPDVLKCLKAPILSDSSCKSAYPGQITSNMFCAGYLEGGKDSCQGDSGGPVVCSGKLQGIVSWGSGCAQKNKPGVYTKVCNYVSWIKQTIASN
Description: (§1) Phosphate buffered saline (PBS) solutions were prepared and adjusted to pH 5.0, 7.0 or 8.0. CRA-1 was dissolved into each of the PBS solutions to a final concentration of 3 mg/ml. Samples of 3 mg/ml trypsin and 3 mg/ml chymotrypsin also were prepared in PBS at pH 5.0, 7.0 or 8.0.
(§2) To examine the susceptibility of CRA-1 to trypsin and chymotrypsin, 1 ml CRA-1 solution at pH 5.0 was mixed with 1 ml trypsin solution at pH 5.0 and 1 ml PBS (pH 5.0) to obtain a final concentration of 1 mg/ml CRA-1 and 1 mg/ml trypsin. Similar assay samples were prepared to examine the stability of CPA-1 in trypsin at pH 7.0 or pH 8.0 and in chymotrypsin at pH 5.0, 7.0 or 8.0. As a control, an assay sample was prepared without trypsin or chymotrypsin.
(§3) Immediately upon preparing an assay sample, 100 μl of the incubation mixture was removed and the reaction was terminated by adding 100 μl of a Stop solution (90% acetonitrile containing 0.1% trifluoroacetic acid). These samples were analyzed by HPLC to determine the amount of CRA-1 present in each sample at the initiation of the reaction.
(§4) The remainder of each assay sample was incubated in an oven at 37° C. At selected times after beginning the incubation, a 100 μl aliquot was withdrawn, the reaction was terminated as described above. The samples were analyzed by HPLC to determine the amount of intact CRA-1.

chymotrypsin [4] = biological target: T2, chymotrypsin (Bos taurus, UniProt P00766); experiment: Susceptibility of free peptide to enzymatic degradation by chymotrypsin; type: in vitro ADME; conditions: 37° C.
Description: as §1, §2, §3, §4

trypsin [5] = biological target: T1, trypsin; experiment: Stability of peptide-ion exchange resin complex to enzymatic degradation by trypsin; type: in vitro ADME; conditions: unbound control
Description: (§5) Fifty mg or 100 mg of the complex was suspended in 5 ml of PBS (pH 7.0) containing either 1 mg/ml trypsin or 1 mg/ml chymotrypsin. The suspensions were rotated at 200 rpm in an incubator at 37° C. for 2 hr. Following incubation, the suspension was vacuum-filtered and the filtrate was analyzed by HPLC to determine the amount of CRA-1 bound to the IRP-64. […] After 1 hr, the suspension was vacuum-[…] ion exchange resin was washed and filtered a second time with 50 ml 2M KCl. The filtrate and wash were analyzed by HPLC to determine the amount of drug recovered from the ion exchange resin.

trypsin [6] = test system: T3, trypsin; experiment: as above; type: in vitro ADME; conditions: isolated enzyme trypsin, pH 7, unbound control, read-out: CRA-1 remaining
T3 construct: gene PRSS1
Description: as §5

chymotrypsin [7] = biological target: T2, chymotrypsin; experiment: Stability of peptide-ion exchange resin complex to enzymatic degradation by chymotrypsin; type: in vitro ADME; conditions: unbound control
Description: as §5

chymotrypsin [8] = experiment: as above; type: in vitro ADME; conditions: isolated enzyme chymotrypsin, pH 7, unbound control, read-out: CRA-1 remaining
Description: as §5

CCCC[C@H](NC(C)=O)C(=O)N[C@@H](CCC(N)=O)C(=O)N[C@@H](Cc1c[nH]cn1)C(=O)N[C@H](Cc1ccccc1)C(=O)N[C@@H](CCCNC(=N)N)C(=O)N[C@H](Cc1c[nH]c2ccccc12)C(=O)NCC(N)=O [CRA-1, Ac-Nle-Gln-His-(D)Phe-Arg-(D)Trp-Gly-NH2]
CRA-1 bound to ion exchange resin ([1]; IRP-69, peptide:resin ratio 1:2, PBS pH 6.0, stirred 2 hr): 66.91% | CRA-1 bound to ion exchange resin ([1]; IRP-69, peptide:resin ratio 1:20, PBS pH 6.0, stirred 2 hr): 99.63% | CRA-1 bound to ion exchange resin ([1]; IRP-69, peptide:resin ratio 1:200, PBS pH 6.0, stirred 2 hr): 99.5% and 99.52% | CRA-1 bound to ion exchange resin ([2]; IRP-64, peptide:resin ratio 1:1, PBS pH 6.0, stirred 1 hr): 10.48% | CRA-1 bound to ion exchange resin ([2]; IRP-64, peptide:resin ratio 1:2, PBS pH 6.0, stirred 1 hr): 20.08% | CRA-1 bound to ion exchange resin ([2]; IRP-64, peptide:resin ratio 1:10, PBS pH 6.0, stirred 1 hr): 97.55% | CRA-1 bound to ion exchange resin ([2]; IRP-64, peptide:resin ratio 1:20, PBS pH 6.0, stirred 1 hr): 98.97% | stability in the presence of trypsin (trypsin [3]; pH 5.0, 1 mg/ml CRA-1, 1 mg/ml trypsin): stable | half-life of degradation by trypsin (trypsin [3]; pH 7.0 or 8.0, 1 mg/ml CRA-1, 1 mg/ml trypsin): 20 to 30 min | stability in the presence of chymotrypsin (chymotrypsin [4]; pH 5.0, 1 mg/ml CRA-1, 1 mg/ml chymotrypsin): stable | half-life of degradation by chymotrypsin (chymotrypsin [4]; pH 7.0 or 8.0, 1 mg/ml CRA-1, 1 mg/ml chymotrypsin): 20 to 30 min | CRA-1 remaining (trypsin [5]): almost completely degraded | remaining at 2 h (trypsin [6]): 2.96% | CRA-1 remaining (chymotrypsin [7]): almost completely degraded | remaining at 2 h (chymotrypsin [8]): 5.47%
